The results in this text go back to patent US9340590B2 (priority 2011, dated 2016).

Assay in all cases: cell-based
Test [1] concerns the target hNav1.7 (Homo sapiens, UniProt Q15858). In kind it is cell-based. The settings on record: IonWorks Quattro, read-out: IWQ Use Nav1.7. A general note: In patch-clamp work, channel activity is measured electrically.
For test [2], the target named is hNav1.5 (Homo sapiens, UniProt Q14524). The settings on record: IonWorks Quattro, read-out: IWQ Use Nav1.5.
The target in test [3] is hNav1.3 (Homo sapiens, UniProt Q9NY46). To be noted: IonWorks Quattro, read-out: IWQ Use Nav1.3.

Like-named read-outs stand apart in the source and are kept apart here. Positions of bridges follow the written chain, without caps; N, C: chain ends. Non-standard residues stand in square brackets, D forms with d. Residues, ends and D or L forms follow the SMILES beside them. Aib = CC(C)(N)C(=O)O

Chain of hNav1.3 (Q9NY46 whole entry, looked up): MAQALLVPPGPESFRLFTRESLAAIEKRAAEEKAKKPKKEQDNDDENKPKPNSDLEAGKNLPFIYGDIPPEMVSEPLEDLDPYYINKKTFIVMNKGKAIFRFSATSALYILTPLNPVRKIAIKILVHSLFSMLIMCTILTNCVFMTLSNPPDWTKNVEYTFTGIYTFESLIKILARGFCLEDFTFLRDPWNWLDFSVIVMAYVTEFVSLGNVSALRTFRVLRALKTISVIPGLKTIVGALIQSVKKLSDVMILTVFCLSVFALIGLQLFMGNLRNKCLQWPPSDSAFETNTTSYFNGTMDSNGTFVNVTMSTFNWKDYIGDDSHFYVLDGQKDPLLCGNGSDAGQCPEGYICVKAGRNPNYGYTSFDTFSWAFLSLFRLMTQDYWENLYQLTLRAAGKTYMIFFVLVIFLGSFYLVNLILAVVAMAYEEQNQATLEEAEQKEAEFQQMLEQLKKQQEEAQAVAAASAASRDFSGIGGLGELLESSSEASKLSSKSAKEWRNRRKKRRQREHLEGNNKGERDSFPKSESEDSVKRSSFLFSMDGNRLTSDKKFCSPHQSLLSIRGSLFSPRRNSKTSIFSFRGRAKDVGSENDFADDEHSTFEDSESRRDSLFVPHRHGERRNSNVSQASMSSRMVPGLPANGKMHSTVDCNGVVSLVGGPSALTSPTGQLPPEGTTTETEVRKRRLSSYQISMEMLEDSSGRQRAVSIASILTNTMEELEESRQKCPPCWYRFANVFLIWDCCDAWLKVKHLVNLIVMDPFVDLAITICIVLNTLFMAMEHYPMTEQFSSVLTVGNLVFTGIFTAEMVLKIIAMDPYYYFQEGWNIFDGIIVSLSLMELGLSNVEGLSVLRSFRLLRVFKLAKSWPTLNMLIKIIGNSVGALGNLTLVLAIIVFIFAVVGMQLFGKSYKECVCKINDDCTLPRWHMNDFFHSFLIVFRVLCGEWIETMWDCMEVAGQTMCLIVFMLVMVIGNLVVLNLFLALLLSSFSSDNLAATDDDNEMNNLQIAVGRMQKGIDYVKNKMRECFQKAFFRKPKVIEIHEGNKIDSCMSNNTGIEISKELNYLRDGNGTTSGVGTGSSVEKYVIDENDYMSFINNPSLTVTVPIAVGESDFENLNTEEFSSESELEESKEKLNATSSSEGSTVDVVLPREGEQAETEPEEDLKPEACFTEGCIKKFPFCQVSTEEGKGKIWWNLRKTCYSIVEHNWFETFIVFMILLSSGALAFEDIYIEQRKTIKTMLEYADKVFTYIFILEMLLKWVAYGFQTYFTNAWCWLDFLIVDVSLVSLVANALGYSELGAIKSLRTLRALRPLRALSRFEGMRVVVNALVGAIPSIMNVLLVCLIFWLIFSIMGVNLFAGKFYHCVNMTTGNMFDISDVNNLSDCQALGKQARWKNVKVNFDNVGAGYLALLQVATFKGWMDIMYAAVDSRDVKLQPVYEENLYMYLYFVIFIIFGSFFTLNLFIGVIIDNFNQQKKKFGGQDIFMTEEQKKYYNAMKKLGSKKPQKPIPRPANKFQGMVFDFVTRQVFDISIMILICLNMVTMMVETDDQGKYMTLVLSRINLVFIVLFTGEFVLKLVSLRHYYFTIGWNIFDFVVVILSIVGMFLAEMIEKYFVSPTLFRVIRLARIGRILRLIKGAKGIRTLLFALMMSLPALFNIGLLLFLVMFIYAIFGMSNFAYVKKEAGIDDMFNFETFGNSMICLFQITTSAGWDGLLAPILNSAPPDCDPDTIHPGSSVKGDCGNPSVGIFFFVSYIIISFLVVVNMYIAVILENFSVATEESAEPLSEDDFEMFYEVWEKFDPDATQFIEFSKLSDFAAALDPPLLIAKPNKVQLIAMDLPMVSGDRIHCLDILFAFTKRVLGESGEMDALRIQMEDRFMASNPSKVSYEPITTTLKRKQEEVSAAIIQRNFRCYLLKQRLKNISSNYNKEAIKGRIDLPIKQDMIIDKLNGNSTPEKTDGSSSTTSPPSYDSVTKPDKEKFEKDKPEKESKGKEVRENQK
Chain of hNav1.7 (Q15858 whole entry, looked up): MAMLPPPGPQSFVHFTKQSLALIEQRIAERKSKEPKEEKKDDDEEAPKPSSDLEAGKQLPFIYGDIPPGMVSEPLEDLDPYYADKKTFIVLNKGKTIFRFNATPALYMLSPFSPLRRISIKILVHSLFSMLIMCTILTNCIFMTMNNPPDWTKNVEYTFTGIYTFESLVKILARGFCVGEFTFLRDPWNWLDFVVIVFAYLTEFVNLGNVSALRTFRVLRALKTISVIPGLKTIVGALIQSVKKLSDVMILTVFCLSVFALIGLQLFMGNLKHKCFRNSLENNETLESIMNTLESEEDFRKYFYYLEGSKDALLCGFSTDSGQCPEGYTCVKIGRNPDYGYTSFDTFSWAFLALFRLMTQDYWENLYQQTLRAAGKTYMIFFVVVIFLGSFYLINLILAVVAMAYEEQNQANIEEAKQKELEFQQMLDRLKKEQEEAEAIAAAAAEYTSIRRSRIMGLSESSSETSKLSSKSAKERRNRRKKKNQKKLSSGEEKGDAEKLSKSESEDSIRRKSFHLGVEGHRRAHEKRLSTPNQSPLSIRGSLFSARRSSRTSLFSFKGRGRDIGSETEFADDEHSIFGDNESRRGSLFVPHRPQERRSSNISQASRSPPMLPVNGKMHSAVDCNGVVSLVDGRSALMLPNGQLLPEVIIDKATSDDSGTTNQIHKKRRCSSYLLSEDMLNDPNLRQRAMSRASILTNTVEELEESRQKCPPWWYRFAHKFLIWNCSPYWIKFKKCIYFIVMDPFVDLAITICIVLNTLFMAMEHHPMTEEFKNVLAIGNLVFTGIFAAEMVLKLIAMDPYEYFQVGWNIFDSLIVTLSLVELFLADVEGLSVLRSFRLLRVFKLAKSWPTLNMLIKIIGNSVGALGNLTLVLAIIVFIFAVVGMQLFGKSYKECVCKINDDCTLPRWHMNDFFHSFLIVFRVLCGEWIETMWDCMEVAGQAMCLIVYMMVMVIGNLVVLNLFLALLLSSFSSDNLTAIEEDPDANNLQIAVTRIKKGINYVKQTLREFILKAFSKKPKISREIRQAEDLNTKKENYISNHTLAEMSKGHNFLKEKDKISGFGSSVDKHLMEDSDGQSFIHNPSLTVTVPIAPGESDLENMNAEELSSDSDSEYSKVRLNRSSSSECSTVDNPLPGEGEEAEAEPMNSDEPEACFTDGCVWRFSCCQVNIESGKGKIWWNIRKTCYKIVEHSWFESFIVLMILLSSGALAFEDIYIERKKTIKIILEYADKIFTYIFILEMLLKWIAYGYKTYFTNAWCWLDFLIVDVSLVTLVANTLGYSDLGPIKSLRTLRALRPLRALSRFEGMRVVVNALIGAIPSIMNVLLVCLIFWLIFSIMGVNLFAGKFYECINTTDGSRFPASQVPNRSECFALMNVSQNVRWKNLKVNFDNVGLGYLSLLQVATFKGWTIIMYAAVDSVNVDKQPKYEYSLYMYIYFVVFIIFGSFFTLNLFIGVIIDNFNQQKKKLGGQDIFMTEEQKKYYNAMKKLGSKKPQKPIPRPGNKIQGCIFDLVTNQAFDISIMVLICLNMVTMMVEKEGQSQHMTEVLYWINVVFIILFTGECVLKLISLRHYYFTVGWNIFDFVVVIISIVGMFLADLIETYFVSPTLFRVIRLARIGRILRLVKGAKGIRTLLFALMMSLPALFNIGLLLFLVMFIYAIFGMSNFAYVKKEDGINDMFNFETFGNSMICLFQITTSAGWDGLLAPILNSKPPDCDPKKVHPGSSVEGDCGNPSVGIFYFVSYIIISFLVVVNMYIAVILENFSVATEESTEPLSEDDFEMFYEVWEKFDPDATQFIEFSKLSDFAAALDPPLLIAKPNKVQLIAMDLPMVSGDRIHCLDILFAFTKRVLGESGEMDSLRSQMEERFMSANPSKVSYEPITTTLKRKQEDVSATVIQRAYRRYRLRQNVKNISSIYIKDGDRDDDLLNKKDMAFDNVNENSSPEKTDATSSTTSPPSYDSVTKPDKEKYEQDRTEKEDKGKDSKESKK

In the case of `CC[C@H](C)[C@@H]1NC(=O)[C@@H]2CSSC[C@@H]3NC(=O)[C@H](C(C)C)NC(=O)[C@H](CC(C)C)NC(=O)[C@H](CC(N)=O)NC(=O)[C@@H]4CCCN4C(=O)[C@H](CCCNC(=N)N)NC(=O)[C@H](CSSC[C@H](NC(=O)[C@@H](N)CC(=O)O)C(=O)N[C@@H](CC(C)C)C(=O)NCC(=O)N[C@@H](Cc4ccccc4)C(=O)N[C@@H](CCSC)C(=O)N[C@@H](CCCNC(=N)N)C(=O)N[C@@H](CCCCN)C(=O)N2)NC(=O)[C@H](CSSC[C@@H](C(=O)N[C@@H](CCCCN)C(=O)N[C@@H](Cc2ccc(O)cc2)C(=O)N[C@H](C(=O)N[C@@H](Cc2ccccc2)C(N)=O)C(C)C)NC(=O)[C@H](CC(C)C)NC(=O)[C@H](CCCCN)NC(=O)[C@H](Cc2c[nH]cn2)NC(=O)[C@H]([C@@H](C)O)NC(=O)[C@H](CCCNC(=N)N)NC(=O)[C@H](CO)NC3=O)NC(=O)[C@H](CCCCN)NC(=O)[C@H](CC(=O)O)NC(=O)[C@H](CC(N)=O)NC(=O)[C@H](CC(=O)O)NC(=O)[C@@H]2CCCN2C1=O` [compound 114] (H-DCLGFMRKCIPDNDKCCRPNLVCSRTHKLCKYVF-NH2; disulfide 2-17, 9-23, 16-30), the IC50 in test [1] (Table 24, use, […]) was 6.99 µM; in test [2] (Table 24, use, […]), 7.27 µM; in test [3] (Table 24, use, […]), 9.8 µM.
With `CC[C@H](C)[C@@H]1NC(=O)[C@@H]2CSSC[C@@H]3NC(=O)[C@H](C(C)C)NC(=O)[C@H](CC(C)C)NC(=O)[C@H](CC(N)=O)NC(=O)[C@@H]4CCCN4C(=O)[C@H](CCCNC(=N)N)NC(=O)[C@H](CSSC[C@H](NC(=O)[C@@H](N)CC(=O)O)C(=O)N[C@@H](CC(C)C)C(=O)NCC(=O)N[C@@H](C)C(=O)N[C@@H](CC(C)C)C(=O)N[C@@H](CCCNC(=N)N)C(=O)N[C@@H](CCCCN)C(=O)N2)NC(=O)[C@H](CSSC[C@@H](C(=O)N[C@@H](CCCCN)C(=O)N[C@@H](Cc2ccc(O)cc2)C(=O)N[C@H](C(=O)N[C@@H](Cc2ccccc2)C(=O)O)C(C)C)NC(=O)[C@H](Cc2c[nH]c4ccccc24)NC(=O)[C@H](CC(N)=O)NC(=O)[C@H](Cc2c[nH]cn2)NC(=O)[C@H]([C@@H](C)O)NC(=O)[C@H](CCCNC(=N)N)NC(=O)[C@H](CO)NC3=O)NC(=O)[C@H](CCCCN)NC(=O)[C@H](CC(=O)O)NC(=O)[C@H](CC(N)=O)NC(=O)[C@H](CC(=O)O)NC(=O)[C@@H]2CCCN2C1=O` [compound 601] (H-DCLGALRKCIPDNDKCCRPNLVCSRTHNWCKYVF-OH; disulfide 2-17, 9-23, 16-30), the IC50 was > 5 µM in test [1] (use-dependent block, hNav1.7); 10 µM in test [2] (use-dependent block, hNav1.5); 2.6 µM in test [3] (use-dependent block, hNav1.3).
With `CC[C@H](C)[C@@H]1NC(=O)[C@@H]2CSSC[C@@H]3NC(=O)[C@H](C(C)C)NC(=O)[C@H](CC(C)C)NC(=O)[C@H](CC(N)=O)NC(=O)[C@@H]4CCCN4C(=O)[C@H](CCCNC(=N)N)NC(=O)[C@H](CSSC[C@H](NC(=O)[C@@H](N)CC(=O)O)C(=O)N[C@@H](CC(C)C)C(=O)NCC(=O)N[C@@H](C)C(=O)N[C@@H](CC(C)C)C(=O)N[C@@H](CCCNC(=N)N)C(=O)N[C@@H](CCCCN)C(=O)N2)NC(=O)[C@H](CSSC[C@@H](C(=O)N[C@@H](CCCCN)C(=O)N[C@@H](Cc2ccc(O)cc2)C(=O)N[C@H](C(=O)N[C@@H](Cc2ccccc2)C(=O)O)C(C)C)NC(=O)[C@H](Cc2c[nH]c4ccccc24)NC(=O)[C@H](CCCNC(=N)N)NC(=O)[C@H](Cc2c[nH]cn2)NC(=O)[C@H]([C@@H](C)O)NC(=O)[C@H](CCCNC(=N)N)NC(=O)[C@H](CO)NC3=O)NC(=O)[C@H](CCCCN)NC(=O)[C@H](CC(=O)O)NC(=O)[C@H](CCCCN)NC(=O)[C@H](CC(=O)O)NC(=O)[C@@H]2CCCN2C1=O` [compound 866] (H-DCLGALRKCIPDKDKCCRPNLVCSRTHRWCKYVF-OH; disulfide 2-17, 9-23, 16-30), the IC50 in test [1] (use-dependent block, hNav1.7) was > 5 µM; in test [2] (use-dependent block, hNav1.5), > 5 µM; in test [3] (use-dependent block, hNav1.3), 2.3 µM.
Regarding `CC[C@H](C)[C@@H]1NC(=O)[C@@H]2CSSC[C@@H]3NC(=O)[C@H](C(C)C)NC(=O)[C@H](CC(C)C)NC(=O)[C@H](CC(N)=O)NC(=O)[C@@H]4CCCN4C(=O)[C@H](CCCNC(=N)N)NC(=O)[C@H](CSSC[C@H](NC(=O)[C@@H](N)CC(=O)O)C(=O)N[C@@H](CC(C)C)C(=O)NCC(=O)NC(C)(C)C(=O)N[C@@H](Cc4ccccc4)C(=O)N[C@@H](CCCNC(=N)N)C(=O)N[C@@H](CCCCN)C(=O)N2)NC(=O)[C@H](CSSC[C@@H](C(=O)N[C@@H](CCCCN)C(=O)N[C@@H](Cc2ccc(O)cc2)C(=O)N[C@H](C(=O)N[C@@H](Cc2ccccc2)C(N)=O)C(C)C)NC(=O)[C@H](Cc2c[nH]c4ccccc24)NC(=O)[C@H](CCCCN)NC(=O)[C@H](Cc2c[nH]cn2)NC(=O)[C@H]([C@@H](C)O)NC(=O)[C@H](CCCNC(=N)N)NC(=O)[C@H](CO)NC3=O)NC(=O)[C@H](CCCCN)NC(=O)[C@H](CC(=O)O)NC(=O)[C@H](CC(N)=O)NC(=O)[C@H](CC(=O)O)NC(=O)[C@@H]2CCCN2C1=O` [compound 604] (H-DCLG[Aib]FRKCIPDNDKCCRPNLVCSRTHKWCKYVF-NH2; disulfide 2-17, 9-23, 16-30), the IC50 came out at 0.44 µM in test [1] (use-dependent block, hNav1.7); 6.4 µM in test [2] (use-dependent block, hNav1.5); 0.61 µM in test [3] (use-dependent block, hNav1.3).
Take `CC[C@H](C)[C@@H]1NC(=O)[C@@H]2CSSC[C@@H]3NC(=O)[C@H](CO)NC(=O)[C@H](CC(C)C)NC(=O)[C@H](CC(N)=O)NC(=O)[C@@H]4CCCN4C(=O)[C@H](CCCNC(=N)N)NC(=O)[C@H](CSSC[C@H](NC(=O)[C@@H](N)CC(=O)O)C(=O)N[C@@H](CC(C)C)C(=O)NCC(=O)N[C@@H](Cc4ccccc4)C(=O)N[C@@H](CCSC)C(=O)N[C@@H](CCCNC(=N)N)C(=O)N[C@@H](CCCCN)C(=O)N2)NC(=O)[C@H](CSSC[C@@H](C(=O)N[C@@H](CCCCN)C(=O)N[C@@H](Cc2ccc(O)cc2)C(=O)N[C@H](C(=O)N[C@@H](Cc2ccccc2)C(N)=O)C(C)C)NC(=O)[C@H](Cc2c[nH]c4ccccc24)NC(=O)[C@H](CCCCN)NC(=O)[C@H](Cc2c[nH]cn2)NC(=O)[C@H]([C@@H](C)O)NC(=O)[C@H](CCCNC(=N)N)NC(=O)[C@H](CO)NC3=O)NC(=O)[C@H](CCCCN)NC(=O)[C@H](CC(=O)O)NC(=O)[C@H](CC(N)=O)NC(=O)[C@H](CC(=O)O)NC(=O)[C@@H]2CCCN2C1=O` [compound 323] (H-DCLGFMRKCIPDNDKCCRPNLSCSRTHKWCKYVF-NH2; disulfide 2-17, 9-23, 16-30): the IC50 in test [1] (Use) stood at 0.1 µM; in test [2] (Use), 4.42 µM; in test [3] (Use), 0.09 µM.
As for `CC[C@H](C)[C@@H]1NC(=O)[C@@H]2CSSC[C@@H]3NC(=O)[C@H](C(C)C)NC(=O)[C@H](CC(C)C)NC(=O)[C@H](CC(N)=O)NC(=O)[C@@H]4CCCN4C(=O)[C@H](CCCNC(=N)N)NC(=O)[C@H](CSSC[C@H](NC(=O)[C@@H](N)CC(=O)O)C(=O)N[C@@H](CC(C)C)C(=O)NCC(=O)N[C@@H](Cc4ccccc4)C(=O)N[C@@H](CCSC)C(=O)N[C@@H](CCCNC(=N)N)C(=O)N[C@@H](CCCCN)C(=O)N2)NC(=O)[C@H](CSSC[C@@H](C(=O)N[C@@H](CCCCN)C(=O)N[C@@H](CCSC)C(=O)N[C@H](C(=O)N[C@@H](Cc2ccccc2)C(N)=O)C(C)C)NC(=O)[C@H](Cc2c[nH]c4ccccc24)NC(=O)[C@H](CCCCN)NC(=O)[C@H](Cc2c[nH]cn2)NC(=O)[C@H]([C@@H](C)O)NC(=O)[C@H](CCCNC(=N)N)NC(=O)[C@H](CO)NC3=O)NC(=O)[C@H](CCCCN)NC(=O)[C@H](CC(=O)O)NC(=O)[C@H](CC(N)=O)NC(=O)[C@H](CC(=O)O)NC(=O)[C@@H]2CCCN2C1=O` [compound 368] (H-DCLGFMRKCIPDNDKCCRPNLVCSRTHKWCKMVF-NH2; disulfide 2-17, 9-23, 16-30), the IC50 in test [1] (Table 25, use, […]) was 0.35 µM; in test [2] (Table 25, use, […]), 6.21 µM; in test [3] (Table 25, use, […]), 0.14 µM.
For the compound `CC[C@H](C)[C@@H]1NC(=O)[C@@H]2CSSC[C@@H]3NC(=O)[C@H](C(C)C)NC(=O)[C@H](CC(C)C)NC(=O)[C@H](CC(N)=O)NC(=O)[C@@H]4CCCN4C(=O)[C@H](CCCNC(=N)N)NC(=O)[C@H](CSSC[C@H](NC(=O)[C@@H](N)CC(=O)O)C(=O)N[C@@H](CC(C)C)C(=O)NCC(=O)N[C@@H](C)C(=O)N[C@@H](Cc4ccccc4)C(=O)N[C@@H](CCCNC(=N)N)C(=O)N[C@@H](CCCCN)C(=O)N2)NC(=O)[C@H](CSSC[C@@H](C(=O)N[C@@H](CCCCN)C(=O)N[C@@H](Cc2ccc(O)cc2)C(=O)N[C@H](C(=O)N[C@@H](Cc2ccccc2)C(=O)O)C(C)C)NC(=O)[C@H](Cc2c[nH]c4ccccc24)NC(=O)[C@@H]2CCCN2C(=O)[C@H](Cc2c[nH]cn2)NC(=O)[C@H]([C@@H](C)O)NC(=O)[C@H](CCCNC(=N)N)NC(=O)[C@H](CO)NC3=O)NC(=O)[C@H](CCCCN)NC(=O)[C@H](CC(=O)O)NC(=O)[C@H](CC(N)=O)NC(=O)[C@H](CC(=O)O)NC(=O)[C@@H]2CCCN2C1=O` [compound 833] (H-DCLGAFRKCIPDNDKCCRPNLVCSRTHPWCKYVF-OH; disulfide 2-17, 9-23, 16-30), the IC50 was > 5 µM in test [1] (use-dependent block, hNav1.7); > 5 µM in test [2] (use-dependent block, hNav1.5); > 5 µM in test [3] (use-dependent block, hNav1.3).
